# System: 292921-168-R tumor spheroid viability
# Experiment: Anticancer human tumor 292921-168-R patient-derived pancreatic carcinoma cell line growth inhibition
# Conditions: spheroids with HUVEC and MSC; for IC50: curve of first compound; for viability, T/C: stronger effect = lower value
# Source text: Multicellular complex tumor spheroid response to DNA repair inhibitors in combination with DNA-damaging drugs
# This study explores the anticancer activities of DNA-damaging drugs and inhibitors of DNA damage repair, both as single agents and in combinations. Complex tumor spheroids comprised of malignant cells, endothelial cells and mesenchymal stem cells served as an in vitro model for human solid tumors. This model system incorporates physiologically relevant features and patient-derived or established malignant cell lines with clinically relevant genetic alterations from many tumor types. Twenty-six patient-derived or established malignant cell lines were evaluated representing sarcoma, melanoma, small cell lung cancer (SCLC), non-small cell lung cancer (NSCLC), as well as bladder, ovarian and pancreatic cancers. The concentration ranges selected for each drug and investigational agent were based upon clinically achievable concentrations if the clinical Cmax of the agent was known.
# Compounds. The drugs and compounds olaparib (NSC753686), talazoparib (NSC767125), berzosertib (NSC777718), elimusertib (NSC800525), nedisertib (NSC802822), VX-984 (NSC792969), AZD-1390 (NSC803789), temozolomide (NSC362856), topotecan (NSC609699), trabectedin (NSC813783), staurosporine (NSC755774), and gemcitabine (NSC613327) were obtained from the National Cancer Institute (NCI) Developmental Therapeutics Program Chemical Repository. The FDA-approved anticancer drug set is available from the Developmental Therapeutics Program at https://dtp.cancer.gov/organization/dscb/obtaining/available_plates.htm. […] The stock solutions were prepared in dimethyl sulfoxide (DMSO, Sigma-Aldrich, St. Louis, MO, cat. D2650) at 400-fold the tested concentration and stored at -70 degrees C. Prior to their use, the stock solutions were diluted in fresh medium and the final DMSO concentration in the assay was 0.25% (v/v). All drugs and investigational agents were tested over a range starting from a high concentration at or near the clinical Cmax and decreasing in half-log increments. If the clinical Cmax for an agent had not been determined, the highest concentration tested was 10 microM.
# Cell Lines. The patient-derived cancer cell (PDC) lines: 156681-154-R-J1-PDC, 283228-195-R-J1-PDC, 287954-098-R-J1-PDC, 292921-168-R-J2-PDC, 349418-098-R-PDC, 425362-245-T-J1-PDC, 556581-035-R-J1-PDC, and BL0293-F563-PDC were received from the NCI Patient-Derived Models Repository (PDMR, https://pdmr.cancer.gov). The established cell lines HS-SY-2 (RRID:CVCL_8719), MPNST, and SYO-1 (RRID:CVCL_7146) were obtained from the Sloan Kettering Institute. The alveolar soft parts sarcoma cell line ASPS-1 (RRID:CVCL_S738) was established at the NCI and grown from internal seed stocks. The following established cell lines were purchased from the American Type Culture Collection (ATCC, Manassas, VA): G-401 (ATCC, cat. CRL-1441, RRID:CVCL_0270), SW982 (ATCC, cat. HTB-93, RRID:CVCL_1734), VA-ES-BJ (ATCC, cat. CRL-2138, RRID:CVCL_1785), NCI-H719 (ATCC, cat. CRL-5837, RRID:CVCL_1582), NCI-H196 (ATCC, cat. CRL-5823, RRID:CVCL_1509), NCI-H841 (ATCC, cat. CRL-5845, RRID:CVCL_1595), NCI-H1618 (ATCC, cat. CRL-5879, RRID:CVCL_1480), NCI-H1876 (ATCC, cat. CRL-5902, RRID:CVCL_1503), DMS 114 (ATCC, cat. CRL-2066; RRID:CVCL_1174), NCI-H211 (ATCC, cat. CRL-5824; RRID:CVCL_1529), and SW 1271 (ATCC, cat. CRL-2177, RRID:CVCL_1716). The small cell lung cancer cell line COR-L88 was purchased from Sigma-Aldrich (cat. 92031917-1VL, RRID:CVCL_1141). The non-small cell lung cancer cell lines NCI-H226 (RRID:CVCL_1544) and NCI-H322M (RRID:CVCL_1557) were established at the NCI and grown from internal seed stocks. Pooled donor human umbilical vein endothelial cells (HUVEC, Lonza, cat. CC-2519) and human mesenchymal stem cells (hMSC, Lonza, cat. PT-2501) were purchased from Lonza (Walkersville, MD).
# Cell Culture. All cells were maintained in an incubator at 37 degrees C and 5% CO2 with 95% humidity. […]
# 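Also: spheroids exposed to compounds for 7 days.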
structure (smiles),measurement,setting,value
Cc1sc2c(c1C)C(c1ccc(Cl)cc1)=NC(CC(=O)Nc1ccc(O)cc1)c1nnc(C)n1-2 (stereo not given) + CC[C@@]1(O)C(=O)OCc2c1cc1n(c2=O)Cc2cc3c(CN(C)C)c(O)ccc3nc2-1,IC50,second compound 0.003 µM,389 nM
same,IC50,second compound 0.00949 µM,449 nM
same,IC50,second compound 0.03 µM,< 9.49 nM
same,IC50,second compound 0.0949 µM,< 9.49 nM
same,IC50,second compound 0.3 µM,< 9.49 nM
same,"viability, T/C","second compound 0.003 µM, first compound 0.00949 µM",92.5%
same,"viability, T/C","second compound 0.003 µM, first compound 0.03 µM",67.6%
same,"viability, T/C","second compound 0.003 µM, first compound 0.0949 µM",62%
same,"viability, T/C","second compound 0.003 µM, first compound 0.3 µM",57.6%
same,"viability, T/C","second compound 0.003 µM, first compound 0.949 µM",44.1%
same,"viability, T/C","second compound 0.003 µM, first compound 3 µM",28.5%
same,"viability, T/C","second compound 0.00949 µM, first compound 0.00949 µM",81.1%
same,"viability, T/C","second compound 0.00949 µM, first compound 0.03 µM",67.4%
same,"viability, T/C","second compound 0.00949 µM, first compound 0.0949 µM",63.8%
same,"viability, T/C","second compound 0.00949 µM, first compound 0.3 µM",56.3%
same,"viability, T/C","second compound 0.00949 µM, first compound 0.949 µM",43.5%
same,"viability, T/C","second compound 0.00949 µM, first compound 3 µM",21.6%
same,"viability, T/C","second compound 0.03 µM, first compound 0.00949 µM",31.5%
same,"viability, T/C","second compound 0.03 µM, first compound 0.03 µM",31.4%
same,"viability, T/C","second compound 0.03 µM, first compound 0.0949 µM",29.6%
same,"viability, T/C","second compound 0.03 µM, first compound 0.3 µM",25%
same,"viability, T/C","second compound 0.03 µM, first compound 0.949 µM",13.8%
same,"viability, T/C","second compound 0.03 µM, first compound 3 µM",2.79%
same,"viability, T/C","second compound 0.0949 µM, first compound 0.00949 µM",9.7%
same,"viability, T/C","second compound 0.0949 µM, first compound 0.03 µM",8.41%
same,"viability, T/C","second compound 0.0949 µM, first compound 0.0949 µM",6.38%
same,"viability, T/C","second compound 0.0949 µM, first compound 0.3 µM",3.78%
same,"viability, T/C","second compound 0.0949 µM, first compound 0.949 µM",1.73%
same,"viability, T/C","second compound 0.0949 µM, first compound 3 µM",1.06%
same,"viability, T/C","second compound 0.3 µM, first compound 0.00949 µM",4.29%
same,"viability, T/C","second compound 0.3 µM, first compound 0.03 µM",3.58%
same,"viability, T/C","second compound 0.3 µM, first compound 0.0949 µM",3.16%
same,"viability, T/C","second compound 0.3 µM, first compound 0.3 µM",1.72%
same,"viability, T/C","second compound 0.3 µM, first compound 0.949 µM",0.92%
same,"viability, T/C","second compound 0.3 µM, first compound 3 µM",0.66%
CNCc1ccc(-c2cc(-c3nc(-c4ccc(S(=O)(=O)C(C)C)cc4)cnc3N)on2)cc1 + Cn1nnc2c(C(N)=O)ncn2c1=O,IC50,second compound 1 µM,205 nM
same,IC50,second compound 3.16 µM,212 nM
same,IC50,second compound 10 µM,214 nM
same,IC50,second compound 31.6 µM,178 nM
same,IC50,second compound 100 µM,136 nM
same,"viability, T/C","second compound 1 µM, first compound 0.00949 µM",90%
same,"viability, T/C","second compound 1 µM, first compound 0.03 µM",85.7%
same,"viability, T/C","second compound 1 µM, first compound 0.0949 µM",70.7%
same,"viability, T/C","second compound 1 µM, first compound 0.3 µM",37.7%
same,"viability, T/C","second compound 1 µM, first compound 0.949 µM",23.1%
same,"viability, T/C","second compound 1 µM, first compound 3 µM",9.35%
same,"viability, T/C","second compound 3.16 µM, first compound 0.00949 µM",97.1%
same,"viability, T/C","second compound 3.16 µM, first compound 0.03 µM",92.8%
same,"viability, T/C","second compound 3.16 µM, first compound 0.0949 µM",67.9%
same,"viability, T/C","second compound 3.16 µM, first compound 0.3 µM",41.9%
same,"viability, T/C","second compound 3.16 µM, first compound 0.949 µM",22%
same,"viability, T/C","second compound 3.16 µM, first compound 3 µM",12%
same,"viability, T/C","second compound 10 µM, first compound 0.00949 µM",96.4%
same,"viability, T/C","second compound 10 µM, first compound 0.03 µM",88.6%
same,"viability, T/C","second compound 10 µM, first compound 0.0949 µM",71.7%
same,"viability, T/C","second compound 10 µM, first compound 0.3 µM",40.2%
same,"viability, T/C","second compound 10 µM, first compound 0.949 µM",20.4%
same,"viability, T/C","second compound 10 µM, first compound 3 µM",9.2%
same,"viability, T/C","second compound 31.6 µM, first compound 0.00949 µM",91.6%
same,"viability, T/C","second compound 31.6 µM, first compound 0.03 µM",79.2%
same,"viability, T/C","second compound 31.6 µM, first compound 0.0949 µM",72.2%
same,"viability, T/C","second compound 31.6 µM, first compound 0.3 µM",31.6%
same,"viability, T/C","second compound 31.6 µM, first compound 0.949 µM",17.2%
same,"viability, T/C","second compound 31.6 µM, first compound 3 µM",8.61%
same,"viability, T/C","second compound 100 µM, first compound 0.00949 µM",81.9%
same,"viability, T/C","second compound 100 µM, first compound 0.03 µM",82.3%
same,"viability, T/C","second compound 100 µM, first compound 0.0949 µM",61.5%
same,"viability, T/C","second compound 100 µM, first compound 0.3 µM",23.9%
same,"viability, T/C","second compound 100 µM, first compound 0.949 µM",13.1%
same,"viability, T/C","second compound 100 µM, first compound 3 µM",7.83%
